Assay results as given in patent publication US4665022A (priority 1984, dated 1987).
Where two headings read alike, the source gives them in different places.

Assays:
[1] = target: nACh receptors in the cerebral cortex (Rattus norvegicus, UniProt Q05941); assay: biochemical; type: binding
[2] = target: nicotinic binding sites; parameters: species or system rat

Sequence of nACh receptors in the cerebral cortex (Q05941 23-502): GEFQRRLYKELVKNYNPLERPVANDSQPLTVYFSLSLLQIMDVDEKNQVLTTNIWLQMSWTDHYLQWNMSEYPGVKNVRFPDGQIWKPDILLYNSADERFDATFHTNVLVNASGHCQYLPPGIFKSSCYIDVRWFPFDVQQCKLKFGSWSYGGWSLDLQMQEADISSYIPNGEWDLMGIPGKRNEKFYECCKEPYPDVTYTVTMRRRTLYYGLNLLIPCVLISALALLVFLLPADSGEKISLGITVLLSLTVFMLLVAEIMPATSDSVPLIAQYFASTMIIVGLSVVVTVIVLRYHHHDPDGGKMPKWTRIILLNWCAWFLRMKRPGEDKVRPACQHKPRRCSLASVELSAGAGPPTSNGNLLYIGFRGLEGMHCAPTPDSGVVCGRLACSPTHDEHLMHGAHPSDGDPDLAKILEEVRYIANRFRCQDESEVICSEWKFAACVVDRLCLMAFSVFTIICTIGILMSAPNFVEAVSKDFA

C[N+](C)(C)CCOC(N)=O [carbamyl choline]
Ki ([1]; read-out: KI): 0.2 µM

COc1cc2c3cc1Oc1cc(ccc1O)C[C@@H]1c4c(cc(OC)c(O)c4Oc4ccc(cc4)C[C@@H]3N(C)CC2)CC[N+]1(C)C [d-tubocurarine]
Ki ([1]; read-out: KI): 0.06 µM

CN1[C@@H]2C[C@@H](OC(=O)[C@H](CO)c3ccccc3)C[C@H]1[C@@H]1O[C@@H]12 [scopolamine]
Ki [1]: > 10000 µM

alpha-bungarotoxin
Ki ([1]; read-out: KI): 0.00012 µM
Ki [2]: 0.00013 µM
